We go through 15 compounds from US11739098B2 (BRISTOL-MYERS SQUIBB COMPANY, priority 2017, dated 2023).

Common to all, as to type: cell-based
In experiment [1] the target is T1, human TLR8 (Homo sapiens, UniProt Q9NR97).
T1 construct: host or cells: HEK-Blue cells (HEK293-derived reporter line)
T1 sequence (Q9NR97 27-1041): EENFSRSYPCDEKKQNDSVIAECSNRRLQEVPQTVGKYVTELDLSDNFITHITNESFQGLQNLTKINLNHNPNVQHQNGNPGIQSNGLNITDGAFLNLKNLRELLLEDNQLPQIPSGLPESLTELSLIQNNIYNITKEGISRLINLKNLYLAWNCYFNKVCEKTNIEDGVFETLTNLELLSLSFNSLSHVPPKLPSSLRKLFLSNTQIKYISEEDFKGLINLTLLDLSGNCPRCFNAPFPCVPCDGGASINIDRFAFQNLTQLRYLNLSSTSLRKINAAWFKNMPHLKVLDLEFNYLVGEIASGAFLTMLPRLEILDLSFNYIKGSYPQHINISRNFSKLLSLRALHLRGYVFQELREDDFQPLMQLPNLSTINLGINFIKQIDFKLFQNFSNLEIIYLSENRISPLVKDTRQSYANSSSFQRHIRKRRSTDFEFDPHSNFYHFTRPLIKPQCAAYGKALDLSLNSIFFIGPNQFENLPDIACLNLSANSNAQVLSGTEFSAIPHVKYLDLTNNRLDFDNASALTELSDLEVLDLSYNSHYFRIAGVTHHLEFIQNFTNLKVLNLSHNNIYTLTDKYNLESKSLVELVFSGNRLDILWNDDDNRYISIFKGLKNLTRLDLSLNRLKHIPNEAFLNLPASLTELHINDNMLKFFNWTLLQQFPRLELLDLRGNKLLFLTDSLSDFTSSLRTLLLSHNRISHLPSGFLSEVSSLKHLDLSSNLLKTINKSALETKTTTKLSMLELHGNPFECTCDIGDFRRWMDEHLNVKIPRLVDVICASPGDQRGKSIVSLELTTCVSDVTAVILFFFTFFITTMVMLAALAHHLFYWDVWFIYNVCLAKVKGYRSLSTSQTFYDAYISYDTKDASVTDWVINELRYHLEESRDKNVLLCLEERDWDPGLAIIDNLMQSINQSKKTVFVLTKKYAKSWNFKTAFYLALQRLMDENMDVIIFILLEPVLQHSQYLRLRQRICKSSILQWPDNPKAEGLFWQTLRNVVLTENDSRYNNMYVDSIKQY
The experiment can be described thus: TLR8 inhibition reporter assay (HEK-Blue cells, SEAP reporter, R848 stimulation). Conditions: HEK-Blue cells overexpressing human TLR8, SEAP reporter, R848 15.9 μM. Put shortly:
(§1)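 Cells seeded per well (15000 TLR7, 20,000 TLR8, 25,000 TLR9); compound added over 0.05 nM–50 μM for 30 min at room temperature; agonist added (TLR7 gardiquimod 7.5 μM, TLR8 R848 15.9 μM, TLR9 ODN2006 5 nM); 22 h at 37 °C; SEAP measured; percent inhibition calculated.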

Experiment [2] has as its target T2, human TLR7 (Homo sapiens, UniProt Q9NYK1).
T2 construct: host or cells: HEK-Blue cells (HEK293-derived reporter line)
T2 sequence (Q9NYK1 27-1049): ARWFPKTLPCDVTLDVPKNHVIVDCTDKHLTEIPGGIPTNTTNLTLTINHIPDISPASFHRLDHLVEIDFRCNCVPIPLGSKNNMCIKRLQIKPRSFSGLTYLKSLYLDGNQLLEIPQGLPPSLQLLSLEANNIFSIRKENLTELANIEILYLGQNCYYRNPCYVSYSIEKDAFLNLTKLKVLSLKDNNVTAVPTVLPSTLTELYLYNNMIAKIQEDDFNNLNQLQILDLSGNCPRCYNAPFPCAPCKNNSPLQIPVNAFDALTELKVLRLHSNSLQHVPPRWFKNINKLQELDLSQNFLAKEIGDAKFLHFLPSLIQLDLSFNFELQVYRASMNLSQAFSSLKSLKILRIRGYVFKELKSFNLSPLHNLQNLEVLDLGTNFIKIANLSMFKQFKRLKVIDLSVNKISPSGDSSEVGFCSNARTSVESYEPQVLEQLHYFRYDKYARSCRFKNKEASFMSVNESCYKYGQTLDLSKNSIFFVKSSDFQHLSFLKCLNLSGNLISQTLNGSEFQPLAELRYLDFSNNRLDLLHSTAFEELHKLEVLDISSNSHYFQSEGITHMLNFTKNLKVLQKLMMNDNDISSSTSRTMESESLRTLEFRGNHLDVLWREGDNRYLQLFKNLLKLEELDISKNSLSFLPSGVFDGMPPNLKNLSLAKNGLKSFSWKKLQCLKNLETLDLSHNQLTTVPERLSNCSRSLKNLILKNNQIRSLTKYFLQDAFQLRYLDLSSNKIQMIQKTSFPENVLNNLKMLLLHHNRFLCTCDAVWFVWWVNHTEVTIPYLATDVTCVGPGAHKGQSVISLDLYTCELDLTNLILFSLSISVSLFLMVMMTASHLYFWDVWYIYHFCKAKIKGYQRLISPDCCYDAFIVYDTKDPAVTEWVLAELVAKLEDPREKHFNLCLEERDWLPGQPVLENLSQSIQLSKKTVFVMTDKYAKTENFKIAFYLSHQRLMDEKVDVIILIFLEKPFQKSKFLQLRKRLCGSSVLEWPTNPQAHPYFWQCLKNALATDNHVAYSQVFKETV
The experiment can be described thus: TLR7 inhibition reporter assay (HEK-Blue cells, SEAP reporter, gardiquimod stimulation). Conditions: HEK-Blue cells overexpressing human TLR7, SEAP reporter, gardiquimod 7.5 μM. In short, it runs like this:
as §1
On the technique in general: A reporter such as luciferase makes a cellular process visible.

The target of experiment [3] is T3, human TLR9 (Homo sapiens, UniProt Q9NR96).
T3 construct: host or cells: HEK-Blue cells (HEK293-derived reporter line)
T3 sequence (Q9NR96 26-1032): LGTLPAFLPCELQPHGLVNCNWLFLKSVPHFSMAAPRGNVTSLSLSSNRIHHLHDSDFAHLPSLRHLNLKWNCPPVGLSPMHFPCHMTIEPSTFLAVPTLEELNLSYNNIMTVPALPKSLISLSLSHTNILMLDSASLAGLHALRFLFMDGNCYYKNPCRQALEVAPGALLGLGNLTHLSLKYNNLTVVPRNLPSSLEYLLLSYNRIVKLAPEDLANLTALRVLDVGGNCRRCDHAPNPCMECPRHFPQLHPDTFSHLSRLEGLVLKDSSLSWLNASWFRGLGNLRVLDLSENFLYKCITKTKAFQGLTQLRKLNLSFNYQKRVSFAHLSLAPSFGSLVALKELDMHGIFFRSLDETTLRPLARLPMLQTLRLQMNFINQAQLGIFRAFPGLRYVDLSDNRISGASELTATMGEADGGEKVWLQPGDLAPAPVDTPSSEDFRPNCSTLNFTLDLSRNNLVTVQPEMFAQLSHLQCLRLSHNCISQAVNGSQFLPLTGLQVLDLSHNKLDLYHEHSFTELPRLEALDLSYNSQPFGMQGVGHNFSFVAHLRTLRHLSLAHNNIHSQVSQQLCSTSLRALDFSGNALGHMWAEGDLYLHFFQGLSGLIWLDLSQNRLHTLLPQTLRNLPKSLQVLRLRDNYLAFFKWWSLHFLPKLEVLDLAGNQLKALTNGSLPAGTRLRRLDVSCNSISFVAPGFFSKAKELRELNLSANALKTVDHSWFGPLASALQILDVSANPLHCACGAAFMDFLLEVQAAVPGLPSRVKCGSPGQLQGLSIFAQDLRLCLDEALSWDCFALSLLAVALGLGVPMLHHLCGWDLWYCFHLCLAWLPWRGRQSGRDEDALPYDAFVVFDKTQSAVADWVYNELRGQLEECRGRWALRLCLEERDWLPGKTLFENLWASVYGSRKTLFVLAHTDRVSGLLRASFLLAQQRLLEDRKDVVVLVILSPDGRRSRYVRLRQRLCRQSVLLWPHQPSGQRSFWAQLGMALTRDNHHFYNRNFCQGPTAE
The experiment can be described thus: TLR9 inhibition reporter assay (HEK-Blue cells, SEAP reporter, ODN2006 stimulation). The following applies: HEK-Blue cells overexpressing human TLR9, SEAP reporter, ODN2006 5 nM. Put shortly: as §1

The term IC50 denotes the concentration at which inhibition is half-maximal. Higher therefore signals weaker potency. On to `CCc1c(-c2cnc3ncnn3c2)[nH]c2ccc(C3CCNCC3)cc12` [Example 26, 6-(3-ethyl-5-(piperidin-4-yl)-1H-indol-2-yl)-[1,2,4]triazolo[1,5-a]pyrimidine], for which the IC50 in experiment [1], in experiment [2] and in experiment [3] was 100 to 1000 nM in each case.

On to `CC(C)c1c(-c2ccc3nccn3n2)[nH]c2ccc(C3CCNCC3)cc12` [Example 27, 6-(3-isopropyl-5-(piperidin-4-yl)-1H-indol-2-yl)imidazo[1,2-b]pyridazine], for which the IC50 in experiment [1] is below 100 nM; in experiment [2], below 100 nM; in experiment [3], 1000 to 50000 nM.

For the compound `CCc1c(-c2cnc3cnccn23)[nH]c2ccc(C3CCNCC3)cc12` [Example 28, 3-(3-ethyl-5-(piperidin-4-yl)-1H-indol-2-yl)imidazo[1,2-a]pyrazine], the IC50 in experiment [1] fell in the range of 1000 to 50000 nM; in experiment [2] it was 1000 to 50000 nM; in experiment [3], 100 to 1000 nM.

For the compound `CCc1c(-c2cnc3ncccn23)[nH]c2ccc(C3CCNCC3)cc12` [Example 29, 3-(3-ethyl-5-(piperidin-4-yl)-1H-indol-2-yl) imidazo[1,2-a]pyrimidine], the IC50 in experiment [1] was below 100 nM; in experiment [2], 100 to 1000 nM; in experiment [3], 100 to 1000 nM.

Consider `Cc1cc(-c2[nH]c3ccc(C4CCNCC4)cc3c2C(C)C)nn2ncnc12` [Example 30, 6-(3-isopropyl-5-(piperidin-4-yl)-1H-indol-2-yl)-8-methyl-[1,2,4]triazolo[1,5-b]pyridazine], for which the IC50 is below 100 nM in experiment [1], below 100 nM in experiment [2] and 1000 to 50000 nM in experiment [3].

`Cc1cc2ncnn2nc1-c1[nH]c2ccc(C3CCNCC3)cc2c1C(C)C` [Example 31, 6-(3-isopropyl-5-(piperidin-4-yl)-1H-indol-2-yl)-7-methyl-[1,2,4]triazolo[1,5-b]pyridazine]: the results for the IC50 in experiment [1], in experiment [2] and in experiment [3] were below 100 nM, below 100 nM and 1000 to 50000 nM, respectively.

`Cc1c(-c2[nH]c3ccc(C4CCNCC4)cc3c2C(C)C)nn2ncnc2c1C` [Example 32, 6-(3-isopropyl-5-(piperidin-4-yl)-1H-indol-2-yl)-7,8-dimethyl-[1,2,4]triazolo[1,5-b]pyridazine]: the IC50 in experiment [1] was below 100 nM; in experiment [2], below 100 nM; in experiment [3], 1000 to 50000 nM.

For `COc1c(C)c(-c2[nH]c3ccc(C4CCNCC4)cc3c2C(C)C)nn2ncnc12` [Example 33, 6-(3-isopropyl-5-(piperidin-4-yl)-1H-indol-2-yl)-8-methoxy-7-methyl-[1,2,4]triazolo[1,5-b]pyridazine], the figures for the IC50 in experiment [1], in experiment [2] and in experiment [3] were below 100 nM, below 100 nM and 100 to 1000 nM, respectively.

With `CC(C)c1c(-c2cn3cnnc3c(O)n2)[nH]c2ccc(C3CCNCC3)cc12` [Example 34, 6-(3-isopropyl-5-(piperidin-4-yl)-1H-indol-2-yl)-[1,2,4]triazolo[4,3-a]pyrazin-8-ol], the IC50 in experiment [1] was above 3130 nM; in experiment [2], 1000 to 50000 nM; in experiment [3], 1000 to 50000 nM.

As to `Cc1ccnc2c1c(-c1[nH]c3ccc(C4CCNCC4)cc3c1C(C)C)cn2C` [Example 35, 3-(3-isopropyl-5-(piperidin-4-yl)-1H-indol-2-yl)-1,4-dimethyl-1H-pyrrolo[2,3-b]pyridine], the IC50 in experiment [1] was below 100 nM; in experiment [2] it was below 100 nM; in experiment [3] it was 1000 to 50000 nM.

Consider `Cc1ccnc2[nH]cc(-c3[nH]c4ccc(C5CCNCC5)cc4c3C(C)C)c12` [Example 36, 3-(3-isopropyl-5-(piperidin-4-yl)-1H-indol-2-yl)-4-methyl-1H-pyrrolo[2,3-b]pyridine], for which the IC50 is below 100 nM in experiment [1], below 100 nM in experiment [2] and 100 to 1000 nM in experiment [3].

With `Cc1c(-c2[nH]c3ccc(C4CCNCC4)cc3c2C(C)C)c2cccnc2n1C` [Example 37, 3-(3-isopropyl-5-(piperidin-4-yl)-1H-indol-2-yl)-1,2-dimethyl-1H-pyrrolo[2,3-b]pyridine], the results for the IC50 in experiment [1], in experiment [2] and in experiment [3] were below 100 nM, below 100 nM and 1000 to 50000 nM, respectively.

For the compound `COc1cc(-c2[nH]c3ccc(C4CCNCC4)cc3c2C(C)C)nn2ncnc12` [Example 38, 6-(3-isopropyl-5-(piperidin-4-yl)-1H-indol-2-yl)-8-methoxy-[1,2,4]triazolo[1,5-b]pyridazine], the IC50 was below 100 nM in experiment [1], below 100 nM in experiment [2] and 100 to 1000 nM in experiment [3].

Take `CCc1c(-c2ccnc3[nH]cc(Cl)c23)[nH]c2ccc(C3CCNCC3)cc12` [Example 39, 3-chloro-4-(3-ethyl-5-(piperidin-4-yl)-1H-indol-2-yl)-1H-pyrrolo[2,3-b]pyridine]: the IC50 in experiment [1] was in the range of 100 to 1000 nM; in experiment [2] it was 100 to 1000 nM; in experiment [3] it was 1000 to 50000 nM.

With `Cc1cc(-c2[nH]c3ccc(C4CCNCC4)cc3c2C(C)C)c2[nH]c(C)cc2n1` [Example 40, 7-(3-isopropyl-5-(piperidin-4-yl)-1H-indol-2-yl)-2,5-dimethyl-1H-pyrrolo[3,2-b]pyridine], the results for the IC50 in experiment [1], in experiment [2] and in experiment [3] were 1000 to 50000 nM, 1000 to 50000 nM and 100 to 1000 nM, respectively.
